Values quoted from earlier work as cited in patent publication US20240325396A1, “METHODS FOR TREATING CANCER” (Allarity Therapeutics, Inc., priority 2023, published 2024).

Settings: cited from earlier work

Compound: NC(=O)c1cccc2cn(-c3ccc([C@@H]4CCCNC4)cc3)nc12 [niraparib]
- Adverse events Grade 5 (300 mg QD (N = 463), QUADRA trial): 2%
- Dose modifications: Discontinuation (300 mg QD (N = 463)): 21%
- Dose modifications: Interruption (300 mg QD (N = 463)): 62%
- Dose modifications: Reduction (300 mg QD (N = 463)): 47%
- Treatment-related adverse events Grade 1 (300 mg QD (N = 463)): 90%
- Treatment-related adverse events Grade 2 (300 mg QD (N = 463)): 56%
- Treatment-related adverse events Grade 3 (300 mg QD (N = 463)): 20%
- Treatment-related adverse events Grade 4 (300 mg QD (N = 463)): <1%
- Anemia Grade 1-4 (QD (N = 463)): 51%
- Anemia Grade 3-4 (QD (N = 463)): 27%
- Neutropenia Grade 1-4 (QD (N = 463)): 20%
- Neutropenia Grade 3-4 (QD (N = 463)): 13%
- Thrombocytopenia Grade 1-4 (QD (N = 463)): 52%
- Thrombocytopenia Grade 3-4 (QD (N = 463)): 28%
